Data taken from EP1268487B1, “TRICYCLIC PROTEIN KINASE INHIBITORS” (Wyeth, priority 2000, dated 2001).
In brackets after ≈: the same amount, converted by molar mass.

What was measured:
MDA435 = test: Inhibition of cancer cell growth as measured by cell number (Sulforhodamine B); assay type: cell-based; conditions: Homo sapiens, 48 hours exposure
Description: (§1) Human tumor cell lines were plated in 96-well plates (250 µl/well, 1-6 x 10^4 cells/ml) in RPMI 1640 medium, containing 5% FBS (Fetal Bovine Serum). […] After 48 hours exposure to test compounds, cells were fixed with trichloroacetic acid, and stained with Sulforhodamine B. After washing with trichloroacetic acid, bound dye was solubilized in 10 mM Tris base and optical density was determined using a plate reader. Under conditions of the assay the optical density is proportional to the number of cells in the well. IC50s (concentrations causing 50% inhibition of cell growth) were determined from the growth inhibition plots. The test procedure is described in details by Philip Skehan et. al, J.Natl. Canc. Inst., 82, 1107-1112 (1990). […] Information about some of the cell lines used in these test procedures is available from the American Type Tissue Collection: Cell Lines and Hybridomas, 1994 Reference Guide, 8th Edition. The Her2Neu cell line is a 3T3 line that has been transfected with Her2 receptor kinase.

SW620 = test: as above; assay type: cell-based; conditions: Homo sapiens, SW-620; 48 hours exposure
Description: as §1

A431 = test: as above; assay type: cell-based; conditions: Homo sapiens, A-431; 48 hours exposure
Description: as §1

SKBR3 = test: as above; assay type: cell-based; conditions: Homo sapiens, SK-BR-3; 48 hours exposure
Description: as §1

Her2Neu = test: as above; assay type: cell-based; conditions: 48 hours exposure; 3T3 line transfected with Her2 receptor kinase
Description: as §1

3T3 = test: as above; assay type: cell-based; conditions: Mus musculus, NIH3T3; 48 hours exposure
Description: as §1

[1] = molecular target: T1, Epidermal Growth Factor Receptor Kinase (EGF-R) (Homo sapiens, UniProt P00533); test: Inhibition of Epidermal Growth Factor Receptor Kinase (EGF-R) using recombinant enzyme; assay type: biochemical; conditions: for inhibition at 0.5 µM: 0.5 µM concentration of test compound
T1 construct: containing the EGFR cDNA encoding amino acids 645 - 1186 preceded by Met-Ala-(His)6; Met-Ala-(His)6 (N); made in house; host or cells: Sf9 insect cells (baculovirus vHcEGFR52)
Description: Representative test compounds were evaluated for their ability to inhibit the phosphorylation of the tyrosine residue of a peptide substrate catalyzed by the enzyme epidermal growth factor receptor kinase. The peptide substrate (RR-SRC) has the sequence arg-arg-leu-ile-glu-asp-ala-glu-tyr-ala-ala-arg-gly. The enzyme used in this assay is the His-tagged cytoplasmic domain of EGFR. A recombinant baculovirus (vHcEGFR52) was constructed containing the EGFR cDNA encoding amino acids 645 - 1186 preceded by Met-Ala-(His)6. Sf9 cells in 100 mm plates were infected at an moi of 10 pfu/cell and cells were harvested 48 hours post infection. A cytoplasmic extract was prepared using 1% Triton X-100 and applied to Ni-NTA column. After washing the column with 20 mM imidazole, HcEGFR was eluted with 250 mM imidazole (in 50 mM Na2HPO4, pH 8.0, 300 mM NaCl). Fractions collected were dialyzed against 10 mM HEPES, pH 7.0, 50 mM NaCl, 10% glycerol, 1µg/mL antipain and leupeptin and 0.1 mM Pefabloc SC. The protein was frozen in dry ice/methanol and stored -70° C.
Test compounds were made into 10 mg/mL stock solutions in 100% dimethylsulfoxide (DMSO). Prior to experiment, stock solutions were diluted to 500 µM with 100% DMSO and then serially diluted to the desired concentration with HEPES buffer (30 mM HEPES pH 7.4).
For the enzyme reaction, 10 µL of each inhibitor (at various concentrations) were added to each well of a 96-well plate. To this was added 3 µL of enzyme (1:10 dilution in 10mM HEPES, pH 7.4 for final conc. of 1:120). This was allowed to sit for 10 minutes on ice and was followed by the addition of 5 µl peptide (80 uM final conc.), 10µl of 4X Buffer (Table A), 0.25 µL ^33P-ATP and 12 µL H2O. The reaction was allowed to run for 90 minutes at room temperature and was followed by spotting the entire volume on to precut P81 filter papers. The filter discs were washed 2X with 0.5% phosphoric acid and radioactivity was measured using a liquid scintillation counter. Table A
The inhibition data for representative compounds of the invention are shown below in TABLE 1. The IC50 is the concentration of test compound needed to reduce the total amount of phosphorylated substrate by 50%. The % inhibition of the test compound was determined for at least three different concentrations and the IC50 value was evaluated from the dose response curve. […] CPM(control) is in units of counts per minute and was a number expressing the amount of radiolabeled ATP (γ-^33P) incorporated into the RR-SRC peptide substrate by the enzyme after 90 minutes at room temperature in the absence of test compound as measured by liquid scintillation counting. The CPM values were corrected for the background counts produced by ATP in the absence of the enzymatic reaction. Where it was possible to determine an IC50 value, this is reported in TABLE 1 otherwise the % inhibition at 0.5 µM concentration of test compound is shown in TABLE 1.

c-Met = molecular target: T2, c-Met (Homo sapiens, UniProt P08581); test: DELFIA assay for c-Met receptor kinase inhibitors; assay type: biochemical
T2 construct: The cytoplasmic domain of c-Met was generated by reverse transcriptase-polymerase chain reaction; His tag (from pFastBac-HTc vector; purified on Ni-NTA/Talon); made in house; host or cells: Sf9 insect cells (baculovirus)
Description: The c-Met kinase assay was performed as a DELFIA (dissociation enchanced lanthanide fluorometric immunoassay), an ELISA-like protocol based upon time-resolved fluorometry as described previously [Braunwalder, A. F., Yarwood, D.R., Sills, M.A., and Lipson, K.E., Anal. Biochem. 238, 159-164 (1996)]. The protocol was adopted for the screening of inhibitors of the kinase activity of recombinant c-Met. [Loganzo, F., and. Hardy, C., American Biotechnology Laboratory 16(13), 26-28 (1998)]. The cytoplasmic domain of c-Met was generated by reverse transcriptase-polymerase chain reaction using RNA isolated from human mammary epithelial cells as template, cloned into the pFastBac-HTc vector (Life Technologies) and protein expressed in Sf9 insect cells by baculovirus infection. Protein was purified by imidazole elution from Ni-NTA resin (Invitrogen, Carlsbad, CA) or Talon resin (Clontech, Palo Alto, CA). Various conditions were evaluated for the kinase screening protocol and screening was accomplished with the following method. Polystyrene Maxisorp plates (Nunc) were pre-coated for 1 hour to overnight at room temperature with 5 µg/ml poly(Glu4-Tyr) diluted in Tris-buffered saline (TBS). Plates were washed 3X with TBS. c-Met protein preparation was diluted 1:80 into 0.1% BSA/ 4 mM HEPES. A master mix was prepared consisting of: 1 volume of diluted c-Met, 1 volume of 5X buffer (20 mM HEPES, pH 7.4; 2 mM MnCl2; 100 µM Na3VO4; 1 mM DTT), 0.9 volume of water. Master mix (29 µl) was added to the wells of peptide-coated microtiter plates. For assays where c-Met autophosphorylation was evaluated, plates were uncoated and c-Met was diluted into 4 mM HEPES at 1:40 without BSA. Compounds (1 µl) at various dilutions (1 mM to 0.1 µM) prepared in DMSO were added and mixed well with an automatic piptettor. After incubation 20 minutes at room temperature, the reaction was initiated with 20 µl of 62.5 µM ATP/ 50 mM MgCl2 (final 25 µM ATP/ 20 mM MgCl2 in assay). Reactions were incubated 45 minutes at room temperature. Plates were then washed 3X with 100 µl each of DELFIA wash buffer (Wallac). Antibody binding was performed by adding 75 µl of Europium-conjugated anti-phosphotyrosine diluted 1:2000 in Assay Buffer (Wallac) for 1 hour at room temperature. Plates were washed 3X with DELFIA wash buffer. Detection was done by addition of 100 µl of Enhancement Solution (Wallac). After 30 minutes, plates were read in a Wallac VICTOR-2 time-resolved fluorometer. Inhibition data was reported as europium counts for compound treated wells normalized to control counts. IC50 values were obtained by using log doses of compound and calculated using Data Analysis Toolbox software, version 1.0.2 (MDL Information Systems, Inc.).

T1 sequence (P00533 669-1210): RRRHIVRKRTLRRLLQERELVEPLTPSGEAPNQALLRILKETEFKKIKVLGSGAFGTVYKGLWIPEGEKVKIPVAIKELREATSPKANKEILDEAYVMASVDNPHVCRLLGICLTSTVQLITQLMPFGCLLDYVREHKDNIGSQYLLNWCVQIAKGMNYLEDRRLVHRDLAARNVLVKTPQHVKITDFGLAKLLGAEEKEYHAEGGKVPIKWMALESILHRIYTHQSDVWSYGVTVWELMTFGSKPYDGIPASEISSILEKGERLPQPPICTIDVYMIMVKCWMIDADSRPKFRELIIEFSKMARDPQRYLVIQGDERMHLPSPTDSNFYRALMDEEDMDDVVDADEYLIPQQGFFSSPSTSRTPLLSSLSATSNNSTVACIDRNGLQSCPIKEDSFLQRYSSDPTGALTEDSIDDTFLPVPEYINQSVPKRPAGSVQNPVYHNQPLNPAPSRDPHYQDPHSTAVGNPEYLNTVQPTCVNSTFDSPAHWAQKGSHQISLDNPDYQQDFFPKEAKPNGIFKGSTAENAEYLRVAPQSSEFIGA
T2 sequence (P08581 956-1390 limits assumed): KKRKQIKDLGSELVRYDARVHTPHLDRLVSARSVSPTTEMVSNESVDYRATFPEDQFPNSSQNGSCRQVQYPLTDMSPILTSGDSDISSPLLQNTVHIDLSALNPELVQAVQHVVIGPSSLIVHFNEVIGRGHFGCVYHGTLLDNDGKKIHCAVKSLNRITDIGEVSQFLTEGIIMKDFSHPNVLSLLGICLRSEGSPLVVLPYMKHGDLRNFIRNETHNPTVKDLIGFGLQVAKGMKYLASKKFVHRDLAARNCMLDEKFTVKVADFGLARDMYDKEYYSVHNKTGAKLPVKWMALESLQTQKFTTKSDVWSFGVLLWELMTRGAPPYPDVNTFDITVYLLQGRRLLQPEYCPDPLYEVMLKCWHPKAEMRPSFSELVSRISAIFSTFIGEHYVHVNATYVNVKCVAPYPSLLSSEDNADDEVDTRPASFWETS

N#Cc1cnc2cc3c(cc2c1Nc1ccc(F)c(Cl)c1)N(CCCCCl)CCO3 [Example 11, 1-(4-Chlorobutyl)-9-(3-chloro-4-fluoroanilino)-2,3-dihydro-1H-[1,4]oxazino[3,2-g]quinoline-8-carbonitrile]
IC50 (MDA435): > 5 µg/mL | IC50 (SW620): > 5 µg/mL | IC50 (A431): 1.9 µg/mL (≈ 4.27 µM) | IC50 (SKBR3): 2.53 µg/mL (≈ 5.68 µM) | IC50 (Her2Neu): > 5 µg/mL | IC50 (3T3): 3.89 µg/mL (≈ 8.74 µM) | inhibition at 0.5 µM [1]: 73% | IC50 ([1]; recombinant enzyme): 1 nM | inhibition at 10 µg/mL (c-Met): 42%

CN(C)CCCCN1CCOc2cc3ncc(C#N)c(Nc4ccc(F)c(Cl)c4)c3cc21 [Example 12, 9-(3-Chloro-4-fluoroanilino)-1-[4-(dimethylamino)butyl]-2,3-dihydro-1H-[1,4]oxazino[3,2-g]quinoline-8-carbonitrile]
IC50 (MDA435): 2.36 µg/mL (≈ 5.2 µM) | IC50 (SW620): 1.5 µg/mL (≈ 3.3 µM) | IC50 (A431): 0.47 µg/mL (≈ 1.04 µM) | IC50 (SKBR3): 0.649 µg/mL (≈ 1.43 µM) | IC50 (Her2Neu): > 5 µg/mL | IC50 (3T3): 1.49 µg/mL (≈ 3.28 µM) | inhibition at 0.5 µM [1]: 53.5% | inhibition at 10 µg/mL (c-Met): 66%
